In patent US8293682B2, “Growth regulators for gramineous weeds” (Rikengreen Co., Ltd., priority 2008, dated 2012):

Assays:
[1] = system: annual bluegrass (Poa annua L.); assay: Test Example 2: count of ear emergence, poly-cup, applications at intervals / alternate application; assay type: in vivo; details: Ethephon 40 mg a.i./m^2 applied Day 10
Protocol: At the initial stage of the ear emergence of annual bluegrass (Poa annua L.) grown in a poly-cup of 11 cm×11 cm, benzyladenine (Beanine for painting; made by Rikengreen; containing 1% benzyladenine) and/or ethephon (Ethrel 10 soluble concentrate; Nissan Chemical Industries; containing 10% ethephon) were diluted in a predetermined amount of water, and a spreader (Riken Sprayzer (registered trade mark); made by Rikengreen) was added so as to be 1/1,000-fold concentration; the respectively diluted solutions were applied by atomization at a dose and intervals as indicated in Table (scattered solution: 200 mL/m^2), and the number of emerged ears of annual bluegrass (Poa annua L.) in the cup was counted through time. The test was carried out serially. […] The symbol “●” in Table indicates the treatment with benzyladenine, “◯” the treatment with ethephon, and “−” untreated. Dose means the amount at a single application.

[2] = system: annual bluegrass (Poa annua L.); assay: Test Example 3: number of emerged ears and leaves, poly-cup, two applications; assay type: in vivo; details: 2nd application after 29 days
Protocol: At the initial stage of the ear emergence of annual bluegrass (Poa annua L.) grown in a poly-cup of 11 cm×11 cm, benzyladenine (Beanine for painting; made by Rikengreen; containing 1% benzyladenine) and ethephon (Ethrel 10 soluble concentrate; Nissan Chemical Industries; containing 10% ethephon) were diluted in a predetermined amount of water, and a spreader (Riken Sprayzer (registered trade mark); made by Rikengreen) was added so as to be 1/1,000-fold concentration; the respectively diluted solutions were applied by atomization at a dose as indicated in Table (scattered solution: 200 mL/m^2), and after a lapse of 29 days, the 2nd application was carried out. Then, the number of emerged ears of annual bluegrass (Poa annua L.) in the cup was counted. Further, the number of leaves [Leaf] of annual bluegrass (Poa annua L.) was counted within the area of 6 cm×6 cm in the cup. The test was carried out serially. […] Dose means the amount at a single application.

[3] = system: southern crabgrasses (Digitaria ciliaris Koel.); assay: Test Example 5: field test in Manilagrass turf, inhibitory effect for ear emergence; assay type: in vivo; details: Ethephon 50 mg a.i./m^2
Protocol: In a Manilagrass (Zoysia matrella) turf where southern crabgrasses (Digitaria ciliaris Koel.) were grown, a test zone of 1 m×1 m was provided. Benzyladenine (Beanine for painting; made by Rikengreen; containing 1% benzyladenine) and ethephon (Ethrel 10 soluble concentrate; Nissan Chemical Industries; containing 10% ethephon) were diluted in a predetermined amount of water. The respectively diluted solutions were applied to each test zone at the first application (Day 0) at a dose as indicated in Table, and after a lapse of 17 days the second application was carried out. The first application was conducted before the ear emergence of southern crabgrasses (Digitaria ciliaris Koel.). The amount of solution scattered was 150 mL/m^2 both in the first and second applications. The inhibitory effect for the ear emergence of southern crabgrasses (Digitaria ciliaris Koel.) within the area of 1 m×1 m was evaluated according to the standard as described in Table 7. […] The symbol “●” in Table 8 indicates the treatment with each agent, and “−” means untreated. Dose means the amount at a single application.

lawn grasses = details: Non-patent document 2; cited from earlier work
[4] = system: annual bluegrass (Poa annua L.); assay: Test Example 4: field test in bent green turf, emerged ear number; assay type: in vivo; details: applied Day 0 and after 30 days
Protocol: In a bent green turf where annual bluegrasses (Poa annua L.) were grown, a test zone of 1 m×1 m was provided. Benzyladenine (Beanine for painting; made by Rikengreen; containing 1% benzyladenine) and ethephon (Ethrel 10 soluble concentrate; Nissan Chemical Industries; containing 10% ethephon) were diluted in a predetermined amount of water, and a spreader (Riken Sprayzer (registered trade mark); made by Rikengreen) was added so as to be 1/1,000-fold concentration. The respectively diluted solutions were applied to each test zone at the first application (Day 0) at a dose as indicated in Table, and after a lapse of 30 days the second application was carried out. The amount of solution scattered was 100 mL/m^2 both in the first and second applications. The number of ear emergence of annual bluegrass (Poa annua L.) within the area of 10×10 cm was counted at regular intervals at 3 spots per zone. […] Dose means the amount at a single application.

[5] = Day 46, Benzyladenine + Ethephon 0 + 20 mg a.i./m^2
[6] = Day 46, Benzyladenine + Ethephon 0 + 40 mg a.i./m^2
[7] = Day 46, Benzyladenine + Ethephon 0 + 80 mg a.i./m^2

O=P(O)(O)CCCl [Ethephon, 2-chloroethylphosphonic acid]
Count of ear emergence ([1]; Day 25): 35 | Count of ear emergence ([1]; Day 33): 27 | Ear (number of emerged ears in the cup) ([2]; Day 23, Benzyladenine + Ethephon 0 + 20 mg a.i./m^2): 30 | Ear (number of emerged ears in the cup) ([2]; Day 23, Benzyladenine + Ethephon 0 + 40 mg a.i./m^2): 23 | Ear (number of emerged ears in the cup) ([2]; Day 23, Benzyladenine + Ethephon 0 + 80 mg a.i./m^2): 13 | Ear (number of emerged ears in the cup) [2, 5]: 34 | [Leaf] (number of leaves within 6 cm×6 cm) [2, 5]: [90] | Ear (number of emerged ears in the cup) [2, 6]: 27 | [Leaf] (number of leaves within 6 cm×6 cm) [2, 6]: [88] | Ear (number of emerged ears in the cup) [2, 7]: 29 | [Leaf] (number of leaves within 6 cm×6 cm) [2, 7]: [79] | Ear (number of emerged ears in the cup) ([2]; Day 53, Benzyladenine + Ethephon 0 + 20 mg a.i./m^2): 34 | Ear (number of emerged ears in the cup) ([2]; Day 53, Benzyladenine + Ethephon 0 + 40 mg a.i./m^2): 30 | Ear (number of emerged ears in the cup) ([2]; Day 53, Benzyladenine + Ethephon 0 + 80 mg a.i./m^2): 41 | Evaluation: index of inhibitory effect for ear emergence ([3]; Day 18, applied Day 0): 2 (20% or more-less than 30%) | Evaluation: index of inhibitory effect for ear emergence ([3]; Day 26, applied Day 0): 3 (30% or more-less than 40%) | Evaluation: index of inhibitory effect for ear emergence ([3]; Day 26, applied Day 0 and Day 17): 4 (40% or more-less than 50%) | Evaluation: index of inhibitory effect for ear emergence ([3]; Day 33, applied Day 0): 1 (10% or more-less than 20%) | Evaluation: index of inhibitory effect for ear emergence ([3]; Day 33, applied Day 0 and Day 17): 5 (50% or more-less than 60%) | Evaluation: index of inhibitory effect for ear emergence ([3]; Day 41, applied Day 0): 1 (10% or more-less than 20%) | Evaluation: index of inhibitory effect for ear emergence ([3]; Day 41, applied Day 0 and Day 17): 2 (20% or more-less than 30%) | extension of stolon and weight in lawn grasses (lawn grasses): promotes the extension of stolon and increase of the weight in lawn grasses | Ear (mean emerged ear number within 10×10 cm) ([4]; Day 22, Ethephon 80, Benzyladenine 0 mg a.i./m^2): 53.7 | Ear (mean emerged ear number within 10×10 cm) ([4]; Day 22, Ethephon 160, Benzyladenine 0 mg a.i./m^2): 25.0 | Ear (mean emerged ear number within 10×10 cm) ([4]; Day 41, Ethephon 80, Benzyladenine 0 mg a.i./m^2): 57.3 | Ear (mean emerged ear number within 10×10 cm) ([4]; Day 41, Ethephon 160, Benzyladenine 0 mg a.i./m^2): 24.3 | Ear (mean emerged ear number within 10×10 cm) ([4]; Day 61, Ethephon 80, Benzyladenine 0 mg a.i./m^2): 68.7 | Ear (mean emerged ear number within 10×10 cm) ([4]; Day 61, Ethephon 160, Benzyladenine 0 mg a.i./m^2): 59.0
